According to PubChem BioAssay (NCI):
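Step 1: Grow cells in 96-well plates. Step 2: Expose to compound for 48 hours at 5 concentrations. Step 3: Interpolate endpoints linearly; if unreached, use highest concentration. GI50: concentration for 50% inhibition of growth. TGI: total growth inhibition.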

Assays:
Test in all cases: NCI anticancer screen, dose series, 48 h
OVCAR-3 ovarian = system: OVCAR-3 ovarian
CAKI-1 renal = system: CAKI-1 renal
SK-MEL-2 melanoma = system: SK-MEL-2 melanoma
NCI/ADR-RES ovarian = system: NCI/ADR-RES ovarian
SN12C renal = system: SN12C renal
A549 NSCLC = system: A549 NSCLC
SK-MEL-5 melanoma = system: SK-MEL-5 melanoma
SK-OV-3 ovarian = system: SK-OV-3 ovarian
T-47D breast = system: T-47D breast
MDA-MB-231 breast = system: MDA-MB-231 breast

Structure (SMILES) | TGI (OVCAR-3 ovarian) | TGI (CAKI-1 renal) | TGI (SK-MEL-2 melanoma) | TGI (NCI/ADR-RES ovarian) | GI50 (SN12C renal) | TGI (SN12C renal) | TGI (A549 NSCLC) | TGI (SK-MEL-5 melanoma) | TGI (SK-OV-3 ovarian) | TGI (T-47D breast) | TGI (MDA-MB-231 breast) | GI50 (CAKI-1 renal) | GI50 (A549 NSCLC)
O=C(O)/C=C/c1c[nH]c(=O)[nH]c1=O | > 500 µM | > 500 µM | > 500 µM | > 472 µM | > 500 µM | > 500 µM | > 500 µM | > 500 µM | > 500 µM |  |  |  | 
COc1ccc(-c2c(-c3ccccc3)c(C)nc3nc(SC)nc(SC)c23)cc1OC | > 100 µM | > 100 µM | 60.6 µM |  |  | > 100 µM | > 100 µM | 27.8 µM | > 100 µM | > 100 µM | > 100 µM |  | 
CC1OC2OC3C(OCC(O)C3O)OC(=O)[C@]34CCC(C)(C)CC3C3=CCC5[C@@]6(C)C[C@H](O)[C@H](OC7OC(CO)C(O)C(O)C7OC7OCC(OC(=O)CC(C)(O)CC(=O)OC1C(O)C2O)C(O)C7O)[C@@](C)(CO)C6CC[C@@]5(C)[C@]3(C)CC4 (some centres not stated) | 20.7 µM |  | 18.8 µM | 28.3 µM |  | 21.1 µM | 10.7 µM | 16.3 µM | 10.4 µM | 17.6 µM | 20.6 µM |  | 
COc1cc2c(cc1OC)C(=O)/C(=C/c1cc(C)cc(C)c1)C2 | 1.04 µM |  | 44.4 µM | > 38 µM |  | 32.6 µM | 18 µM | 0.932 µM | > 32.9 µM | 45.6 µM | 7.44 µM |  | 
O=C(O)/C=C/c1ccc2c(c1)CC1(Cc3ccccc3C1)C2 | > 100 µM |  | 87.7 µM | > 100 µM |  | > 100 µM | > 100 µM | > 100 µM | > 100 µM | > 100 µM | > 100 µM |  | 
CN(CCc1ccccn1)C(=S)N/N=C(\c1ccccc1)c1ccccn1 | 10.4 µM | 5.3 µM | 4.35 µM |  |  | 15 µM | 8.42 µM | 6.65 µM | 2.19 µM | 4.82 µM |  |  | 
Cn1cc(S(=O)(=O)NC(=O)Nc2ccc(Cl)cc2)c(=O)c2ccc(F)cc21 |  | > 100 µM | > 100 µM | > 100 µM |  | > 100 µM | > 100 µM | > 100 µM | > 100 µM | > 100 µM | > 100 µM |  | 
CC(=O)OC1[C@H](OC(C)=O)C2=C(C)[C@@H](OC(C)=O)C[C@@]2(C(C)(C)O)[C@@H](OC(C)=O)[C@H]2[C@@]1(C)[C@@H](OC(C)=O)CC(OC(C)=O)[C@]21CO1 (some centres not stated) | > 100 µM | > 100 µM | > 100 µM |  |  | > 100 µM | > 100 µM | > 100 µM | > 100 µM | > 100 µM |  |  | 
CC12CCC(CC1)C(C)(C)O2 | 84.8 µM | > 61.2 µM | 118 µM | 266 µM |  | 71.7 µM | 79.7 µM | 21.8 µM | 223 µM |  |  | 15.7 µM | 6.75 µM
CC(=O)OCC1OC(n2c(Br)nc3c2c(=O)n(C)c(=O)n3C)C(OC(C)=O)C1OC(C)=O (configuration not stated) | > 100 µM | > 100 µM |  | > 100 µM |  | > 100 µM | > 100 µM | > 100 µM | > 100 µM | > 100 µM | > 100 µM |  | 
Clc1ccc(C[P+](c2ccccc2)(c2ccccc2)c2ccccc2)cc1Cl | 6.74 µM | 11 µM | 6.4 µM |  |  | 15.3 µM | 19.9 µM | 2.78 µM | 20.8 µM |  |  |  | 
N/C1=C/C(=O)NC(=O)c2c(c3ccccc3oc2=O)C1 | > 100 µM | > 100 µM | > 100 µM | > 100 µM |  | > 100 µM | > 100 µM |  |  | > 100 µM | > 100 µM |  | 
C(=Nc1ccc(-c2nc3ccccc3s2)cc1)c1ccc[nH]1 | 39.5 µM | 78.3 µM | 32 µM | 44.6 µM |  | 44.8 µM | > 100 µM | 30.7 µM | 51.6 µM | 47.3 µM |  |  | 
C=C1C(=O)O[C@H]2C[C@@H]1[C@@H](O)[C@H](O)[C@@H](C)CCCC(C)=CCC[C@@]2(C)O | 28.5 µM | 22.3 µM | 41.2 µM |  |  | 72.3 µM | > 100 µM | 48.4 µM | > 100 µM | 57.1 µM | 84.4 µM |  | 
CCOC(=O)c1c(SC(=O)c2ccc(OC)cc2)n(-c2ccccc2)c(=S)n(-c2ccccc2)c1=O | > 100 µM | > 100 µM |  | > 100 µM |  | > 100 µM | > 100 µM |  | > 100 µM | > 100 µM | 81 µM |  | 
C=C1C(=O)OC2CC(C)C3C4OC4C(O)C3(C)C(O)C12 (configuration not stated) | 69.3 µM | 67.9 µM | 72.7 µM | 91.9 µM |  | 72 µM | 121 µM | 87.1 µM | 98.8 µM |  |  |  | 
O=C(O)c1nc2ccc(C(F)(F)F)cc2nc1Nc1ccc(F)cc1 | 60.8 µM | 78 µM | 34.8 µM | 84.7 µM |  | 85.6 µM |  | > 100 µM |  |  | 65.6 µM |  | 
CC(C)C1=CC(=O)[C@@](C)(C2[C@H](O)C[C@@]3(C)[C@@H]4CC=C5[C@@H](CC[C@@H](OC6OCC(O)C(O)C6OC6OC(C)C(O)C(O)C6O)C5(C)C)[C@]4(C)C(=O)C[C@]23C)O1 (some centres not stated) | > 100 µM | > 100 µM |  | > 100 µM |  | > 100 µM | > 100 µM | > 100 µM | > 100 µM | > 100 µM | > 100 µM |  | 
CCOC(=O)C1(C#N)CC1 |  | > 100 µM | > 100 µM | > 100 µM |  | > 100 µM | > 100 µM | > 100 µM | > 100 µM | > 100 µM | > 100 µM |  | 
COc1cc(-c2c3c(cc4c2OCO4)[C@@H](Nc2ccc(-c4ccc(-c5ccc(N[C@@H]6c7cc8c(cc7C(c7cc(OC)c(O)c(OC)c7)[C@H]7C(=O)OC[C@H]67)OCO8)cc5)cc4)cc2)[C@H]2COC(=O)[C@@H]2C3)cc(OC)c1O (some centres not stated) | 4.85 µM | 8.8 µM |  | 5.92 µM |  | 24.4 µM | 12.6 µM | 7.58 µM | 10.1 µM | 65.2 µM | 6 µM |  | 
COC1C(N(C)C)=C(c2ccccc2)C(=O)N2CCc3ccccc3C12 (configuration not stated) |  | > 100 µM | > 100 µM | > 100 µM |  | > 100 µM | > 100 µM | > 100 µM | > 100 µM | > 100 µM | > 100 µM |  | 
C/C(N=NS(=O)(=O)c1ccc([N+](=O)[O-])cc1)=C1\C=CC=CN1O | > 100 µM | > 100 µM |  |  |  | > 100 µM | > 100 µM | > 100 µM | > 100 µM |  |  |  | 
